{"source": "patent US20250171437A1", "about": "(Agios Pharmaceuticals,Inc., priority 2022, published 2025)"}
{"target": "T1, human PAH with the R408W mutation (A375 R408W cells) (Homo sapiens, UniProt P00439, R408W)", "T1 construct": "expressed in transfected cells", "T1 sequence (P00439 1-452 R408W)": "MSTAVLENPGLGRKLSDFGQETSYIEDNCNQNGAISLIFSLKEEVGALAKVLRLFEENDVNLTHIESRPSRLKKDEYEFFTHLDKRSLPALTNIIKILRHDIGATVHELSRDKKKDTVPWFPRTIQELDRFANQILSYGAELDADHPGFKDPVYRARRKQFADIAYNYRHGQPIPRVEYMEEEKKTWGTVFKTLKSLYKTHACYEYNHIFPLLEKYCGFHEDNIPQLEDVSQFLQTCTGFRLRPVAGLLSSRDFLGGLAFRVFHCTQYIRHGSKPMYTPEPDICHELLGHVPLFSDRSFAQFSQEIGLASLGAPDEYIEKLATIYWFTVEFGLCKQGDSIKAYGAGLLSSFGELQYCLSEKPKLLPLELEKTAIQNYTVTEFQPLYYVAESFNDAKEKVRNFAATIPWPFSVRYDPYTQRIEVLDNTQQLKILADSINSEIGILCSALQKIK", "assay": "Cell Based Phenylalanine Flux Assay", "settings": "A375 R408W cells; 24 hrs with compound, then 20 μM sepiapterin and 800 μM 13C9,15N-Phenylalanine for 4 hours; 13C-Tyrosine by LC-MS; average where tested multiple times", "description": "(§1) Cells expressing R408W PAH were made by transducing A375 cells with lentivirus encoding human PAH with the R408W mutation in pLVX-Puro, then selecting with puromycin until stable cell lines were generated. A375 R408W cells were seeded into 96 well plates in DMEM+10% FBS at a density of 40,000 cells/well one hour prior to compound addition. Compounds were resuspended in DMSO, and 2-fold serial dilutions were performed to generate a 10-point dose curve. Compounds were added to plated cells in a total volume of 100 μl, and a final DMSO concentration of 0.5%. Each compound was tested in duplicate. Following compound addition, cells were placed in a 5% CO2, 37° C. tissue culture incubator for 24 hrs. After the incubation period, 20 μM sepiapterin and 800 μM 13C9,15N-Phenylalanine were added. After 4 hours, cell media was removed. An aliquot of 10 μl of cell media was combined with 200 μl of extraction buffer (80% acetonitrile/20% H2O) for each well. Determination of ^13C-Tyrosine concentration was assessed by liquid chromatography mass spectrometry.\n(§2) Specific compounds disclosed herein were tested in the foregoing assay and they were determined to have an AC50 according to the following scores: (A) less than or equal to 0.500 μM, (B) greater than 0.500 and less than […], (C) greater than or equal to 1.000 and less than 5.000 μM, (D) greater than or equal to 5.000 μM, (E) no fit, and (NT) not tested, as shown below. Where a compound was tested multiple times, the average value of the tests is reported.", "units": {"AC50": "µM"}}
{"smiles": "Cn1cc(-c2nnc(C(=O)N3CCc4[nH]cnc4[C@@H]3c3nc4cc(F)ccc4o3)o2)c(C(F)(F)F)n1", "note": "[Example 117, (R)-(4-(5-fluorobenzo[d]oxazol-2-yl)-6,7-dihydro-1H-imidazo[4,5-c]pyridin-5(4H)-yl)(5-(1-methyl-3-(trifluoromethyl)-1H-pyrazol-4-yl)-1,3,4-oxadiazol-2-yl)methanone]", "AC50": "1 to 5"}
{"smiles": "O=C(c1cnn2cc(N3CCN(C4CC4)CC3)ccc12)N1CCc2[nH]cnc2[C@@H]1c1nc2cc(F)ccc2o1", "note": "[Example 134, (R)-(6-(4-cyclopropylpiperazin-1-yl)pyrazolo[1,5-a]pyridin-3-yl)(4-(5-fluorobenzo[d]oxazol-2-yl)-6,7-dihydro-1H-imidazo[4,5-c]pyridin-5(4H)-yl)methanone]", "AC50": "≥ 5"}
{"smiles": "O=C(c1ccnn1CC(F)F)N1CCc2[nH]cnc2[C@H]1c1nc2cccc(F)c2o1", "note": "[Example 847, (S)-(1-(2,2-difluoroethyl)-1H-pyrazol-5-yl)(4-(7-fluorobenzo[d]oxazol-2-yl)-6,7-dihydro-1H-imidazo[4,5-c]pyridin-5(4H)-yl)methanone]", "AC50": "≤ 0.5"}
{"smiles": "O=C(c1cnn2cc(N3CCC(F)CC3)ccc12)N1CCc2[nH]cnc2[C@H]1c1nc2c(F)cccc2o1", "note": "[Example 477, (S)-(4-(4-fluorobenzo[d]oxazol-2-yl)-6,7-dihydro-1H-imidazo[4,5-c]pyridin-5(4H)-yl)(6-(4-fluoropiperidin-1-yl)pyrazolo[1,5-a]pyridin-3-yl)methanone]", "AC50": "≤ 0.5"}
{"smiles": "CC(C)(O)c1nc(Br)c(C(=O)N2CCc3[nH]cnc3[C@@H]2c2nc3ccc(F)cc3o2)o1", "note": "[Example 250, (R)-(4-bromo-2-(2-hydroxypropan-2-yl)oxazol-5-yl)(4-(6-fluorobenzo[d]oxazol-2-yl)-6,7-dihydro-1H-imidazo[4,5-c]pyridin-5(4H)-yl)methanone]", "AC50": "≥ 5"}
{"smiles": "Cn1cncc1-c1nc(C(F)F)c(C(=O)N2CCc3[nH]cnc3[C@H]2c2nc3cc(F)ccc3o2)o1", "note": "[Example 687, (S)-(4-(difluoromethyl)-2-(1-methyl-1H-imidazol-5-yl)oxazol-5-yl)(4-(5-fluorobenzo[d]oxazol-2-yl)-6,7-dihydro-1H-imidazo[4,5-c]pyridin-5(4H)-yl)methanone]", "AC50": "0.5 to 1"}
{"smiles": "COc1ccc2oc([C@@H]3c4nc[nH]c4CCN3C(=O)c3nnc(-c4ccccn4)o3)nc2c1", "note": "[Example 555, (S)-(4-(5-methoxybenzo[d]oxazol-2-yl)-6,7-dihydro-1H-imidazo[4,5-c]pyridin-5(4H)-yl)(5-(pyridin-2-yl)-1,3,4-oxadiazol-2-yl)methanone]", "AC50": "0.5 to 1"}
{"smiles": "C[C@H](O)c1nc(C(F)F)c(C(=O)N2CCc3[nH]cnc3[C@H]2c2nc3cc(F)ccc3o2)o1", "note": "[Example 157, (4-(difluoromethyl)-2-((S)-1-hydroxyethyl)oxazol-5-yl)((S)-4-(5-fluorobenzo[d]oxazol-2-yl)-6,7-dihydro-1H-imidazo[4,5-c]pyridin-5(4H)-yl)methanone]", "AC50": "0.5 to 1"}
{"smiles": "Cc1nc([C@@H](C)O)oc1C(=O)N1CCc2[nH]cnc2[C@@H]1c1nc2c(F)cccc2o1", "note": "[Example 209, ((R)-4-(4-fluorobenzo[d]oxazol-2-yl)-6,7-dihydro-1H-imidazo[4,5-c]pyridin-5(4H)-yl)(2-((R)-1-hydroxyethyl)-4-methyloxazol-5-yl)methanone]", "AC50": "≥ 5"}
{"smiles": "Cc1ccc2nc([C@@H]3c4nc[nH]c4CCN3C(=O)c3nnc(-c4cnn(C)c4)o3)oc2c1", "note": "[Example 103, (S)-(5-(1-methyl-1H-pyrazol-4-yl)-1,3,4-oxadiazol-2-yl)(4-(6-methylbenzo[d]oxazol-2-yl)-6,7-dihydro-1H-imidazo[4,5-c]pyridin-5(4H)-yl)methanone]", "AC50": "1 to 5"}
{"target": "T1, human PAH with the R408W mutation (A375 R408W cells)", "assay": "Cell Based Phenylalanine Flux Assay", "settings": "A375 cells expressing R408W PAH; 24 hrs with compound, then 20 μM sepiapterin and 800 μM 13C9,15N-Phenylalanine for 4 hours; 13C-Tyrosine by LC-MS; average where tested multiple times", "description": "as §1, §2", "units": {"AC50": "µM"}}
{"smiles": "O=C(c1cnn2cc(N3CCOCC3)ccc12)N1CCc2[nH]cnc2C1c1nc2cc(F)ccc2o1", "note": "(stereo not shown)", "AC50": "≥ 5"}
{"smiles": "Cc1nc(C(=O)N2CCc3[nH]cnc3C2c2nc3ccccc3o2)n(C)n1", "note": "(stereo not shown)", "AC50": "1 to 5"}
{"smiles": "O=C(c1cnn(-c2ccccn2)c1Cl)N1CCc2[nH]cnc2C1c1nc2cc(F)ccc2o1", "note": "(stereo not shown)", "AC50": "1 to 5"}
